Organism: Rattus norvegicus
Assay: DrugMatrix - Regimen: Daily Repeat
Type: toxicity, organism-based, Sprague-Dawley
Design: regimen Daily Repeat, gender Male, age 6-8 weeks
Details: in vivo, po, route oral GAVAGE, vehicle 100 % WATER; for ABSOLUTE BASOPHIL / ABSOLUTE EOSINOPHIL / ABSOLUTE LYMPHOCYTE / ABSOLUTE MONOCYTE / ABSOLUTE SEGMENTED NEUTROPHIL / BASOPHIL / EOSINOPHIL / ERYTHROCYTE COUNT / HEMATOCRIT / HEMOGLOBIN / LEUKOCYTE COUNT / LYMPHOCYTE / MEAN CORPUSCULAR HEMOGLOBIN / MEAN CORPUSCULAR HEMOGLOBIN CONCENTRATION / MEAN CORPUSCULAR VOLUME / MONOCYTE / NEUTROPHIL / NUCLEATED RED BLOOD CELLS / PLATELET COUNT: tissue Blood; for ALANINE AMINOTRANSFERASE / ALBUMIN / ALKALINE PHOSPHATASE / ASPARTATE AMINOTRANSFERASE / BLOOD UREA NITROGEN / CARBON DIOXIDE / CHLORIDE / CHOLESTEROL / CREATINE PHOSPHOKINASE / CREATININE / GLUCOSE / LACTATE DEHYDROGENASE / LIPASE / PHOSPHORUS / POTASSIUM / SODIUM / TOTAL BILIRUBIN / TOTAL PROTEIN / URIC ACID: tissue Plasma
[1] = 100 mg/kg, 72 h, dose level Low, time 3 day
[2] = 100 mg/kg, 120 h, dose level Low, time 5 day
[3] = 2000 mg/kg, 72 h, dose level High, time 3 day
[4] = 2000 mg/kg, 120 h, dose level High, time 5 day

O=C1O[C@H]([C@@H](O)CO)C(O)=C1O [ASCORBIC ACID]
ABSOLUTE BASOPHIL [1]: 0 CELLS/uL | ABSOLUTE EOSINOPHIL [1]: 27 CELLS/uL | ABSOLUTE LYMPHOCYTE [1]: 7261.67 CELLS/uL | ABSOLUTE MONOCYTE [1]: 27 CELLS/uL | ABSOLUTE SEGMENTED NEUTROPHIL [1]: 717.67 CELLS/uL | BASOPHIL [1]: 0% | EOSINOPHIL [1]: 0.33% | ERYTHROCYTE COUNT [1]: 4.91 x10E6/uL | HEMATOCRIT [1]: 32.13% | HEMOGLOBIN [1]: 13.13 G/DL | LEUKOCYTE COUNT [1]: 8.03 x10E3/uL | LYMPHOCYTE [1]: 89% | MEAN CORPUSCULAR HEMOGLOBIN [1]: 26.8 pg | MEAN CORPUSCULAR HEMOGLOBIN CONCENTRATION [1]: 40.87 G/DL | MEAN CORPUSCULAR VOLUME [1]: 65.43 fL | MONOCYTE [1]: 0.33% | NEUTROPHIL [1]: 10.33% | NUCLEATED RED BLOOD CELLS [1]: 0.33 /100WBC | PLATELET COUNT [1]: 954.33 x10E3/uL | ALANINE AMINOTRANSFERASE [1]: 50 u/L | ALBUMIN [1]: 4.53 G/DL | ALKALINE PHOSPHATASE [1]: 454.67 u/L | ASPARTATE AMINOTRANSFERASE [1]: 87 u/L | BLOOD UREA NITROGEN [1]: 15 mg/dL | CARBON DIOXIDE [1]: 32.33 mmol/L | CHLORIDE [1]: 101 MEQ/L | CHOLESTEROL [1]: 78.33 mg/dL | CREATINE PHOSPHOKINASE [1]: 273 u/L | CREATININE [1]: 0.25 mg/dL | GLUCOSE [1]: 121.33 mg/dL | LACTATE DEHYDROGENASE [1]: 148.67 u/L | LIPASE [1]: 9.67 u/L | PHOSPHORUS [1]: 12.13 mg/dL | POTASSIUM [1]: 7.25 MEQ/L | SODIUM [1]: 146.63 MEQ/L | TOTAL BILIRUBIN [1]: 0.23 mg/dL | TOTAL PROTEIN [1]: 6.33 G/DL | URIC ACID [1]: 1.07 mg/dL | ABSOLUTE BASOPHIL [2]: 0 CELLS/uL | ABSOLUTE EOSINOPHIL [2]: 0 CELLS/uL | ABSOLUTE LYMPHOCYTE [2]: 12684.67 CELLS/uL | ABSOLUTE MONOCYTE [2]: 119.33 CELLS/uL | ABSOLUTE SEGMENTED NEUTROPHIL [2]: 1596 CELLS/uL | BASOPHIL [2]: 0% | EOSINOPHIL [2]: 0% | ERYTHROCYTE COUNT [2]: 5.44 x10E6/uL | HEMATOCRIT [2]: 34.63% | HEMOGLOBIN [2]: 13.63 G/DL | LEUKOCYTE COUNT [2]: 14.4 x10E3/uL | LYMPHOCYTE [2]: 88.33% | MEAN CORPUSCULAR HEMOGLOBIN [2]: 25.07 pg | MEAN CORPUSCULAR HEMOGLOBIN CONCENTRATION [2]: 39.4 G/DL | MEAN CORPUSCULAR VOLUME [2]: 63.67 fL | MONOCYTE [2]: 1% | NEUTROPHIL [2]: 10.67% | NUCLEATED RED BLOOD CELLS [2]: 0 /100WBC | PLATELET COUNT [2]: 1152.33 x10E3/uL | ALANINE AMINOTRANSFERASE [2]: 51.67 u/L | ALBUMIN [2]: 4.3 G/DL | ALKALINE PHOSPHATASE [2]: 417 u/L | ASPARTATE AMINOTRANSFERASE [2]: 79 u/L | BLOOD UREA NITROGEN [2]: 17 mg/dL | CARBON DIOXIDE [2]: 33.33 mmol/L | CHLORIDE [2]: 103 MEQ/L | CHOLESTEROL [2]: 73 mg/dL | CREATINE PHOSPHOKINASE [2]: 142.33 u/L | CREATININE [2]: 0.2 mg/dL | GLUCOSE [2]: 152.67 mg/dL | LACTATE DEHYDROGENASE [2]: 82.33 u/L | LIPASE [2]: 8.33 u/L | PHOSPHORUS [2]: 12.97 mg/dL | POTASSIUM [2]: 6.73 MEQ/L | SODIUM [2]: 148.3 MEQ/L | TOTAL BILIRUBIN [2]: 0.2 mg/dL | TOTAL PROTEIN [2]: 6.23 G/DL | URIC ACID [2]: 1.53 mg/dL | ABSOLUTE BASOPHIL [3]: 0 CELLS/uL | ABSOLUTE EOSINOPHIL [3]: 0 CELLS/uL | ABSOLUTE LYMPHOCYTE [3]: 11911.67 CELLS/uL | ABSOLUTE MONOCYTE [3]: 70.67 CELLS/uL | ABSOLUTE SEGMENTED NEUTROPHIL [3]: 1384.33 CELLS/uL | BASOPHIL [3]: 0% | EOSINOPHIL [3]: 0% | ERYTHROCYTE COUNT [3]: 5.18 x10E6/uL | HEMATOCRIT [3]: 32.77% | HEMOGLOBIN [3]: 13.1 G/DL | LEUKOCYTE COUNT [3]: 13.37 x10E3/uL | LYMPHOCYTE [3]: 89.33% | MEAN CORPUSCULAR HEMOGLOBIN [3]: 25.27 pg | MEAN CORPUSCULAR HEMOGLOBIN CONCENTRATION [3]: 39.97 G/DL | MEAN CORPUSCULAR VOLUME [3]: 63.27 fL | MONOCYTE [3]: 0.67% | NEUTROPHIL [3]: 10% | NUCLEATED RED BLOOD CELLS [3]: 0 /100WBC | PLATELET COUNT [3]: 1123.33 x10E3/uL | ALANINE AMINOTRANSFERASE [3]: 37.67 u/L | ALBUMIN [3]: 4.03 G/DL | ALKALINE PHOSPHATASE [3]: 334 u/L | ASPARTATE AMINOTRANSFERASE [3]: 76.33 u/L | BLOOD UREA NITROGEN [3]: 15.33 mg/dL | CARBON DIOXIDE [3]: 32.33 mmol/L | CHLORIDE [3]: 101.67 MEQ/L | CHOLESTEROL [3]: 63.67 mg/dL | CREATINE PHOSPHOKINASE [3]: 214.33 u/L | CREATININE [3]: 0.17 mg/dL | GLUCOSE [3]: 146.33 mg/dL | LACTATE DEHYDROGENASE [3]: 137.67 u/L | LIPASE [3]: 9 u/L | PHOSPHORUS [3]: 11.5 mg/dL | POTASSIUM [3]: 6.65 MEQ/L | SODIUM [3]: 144.3 MEQ/L | TOTAL BILIRUBIN [3]: 0.2 mg/dL | TOTAL PROTEIN [3]: 5.63 G/DL | URIC ACID [3]: 1.4 mg/dL | ABSOLUTE BASOPHIL [4]: 0 CELLS/uL | ABSOLUTE EOSINOPHIL [4]: 0 CELLS/uL | ABSOLUTE LYMPHOCYTE [4]: 16297.33 CELLS/uL | ABSOLUTE MONOCYTE [4]: 372.33 CELLS/uL | ABSOLUTE SEGMENTED NEUTROPHIL [4]: 863.67 CELLS/uL | BASOPHIL [4]: 0% | EOSINOPHIL [4]: 0% | ERYTHROCYTE COUNT [4]: 5.49 x10E6/uL | HEMATOCRIT [4]: 35.9% | HEMOGLOBIN [4]: 14.2 G/DL | LEUKOCYTE COUNT [4]: 17.53 x10E3/uL | LYMPHOCYTE [4]: 93.33% | MEAN CORPUSCULAR HEMOGLOBIN [4]: 25.9 pg | MEAN CORPUSCULAR HEMOGLOBIN CONCENTRATION [4]: 39.53 G/DL | MEAN CORPUSCULAR VOLUME [4]: 65.47 fL | MONOCYTE [4]: 2% | NEUTROPHIL [4]: 4.67% | NUCLEATED RED BLOOD CELLS [4]: 0.33 /100WBC | PLATELET COUNT [4]: 1195.67 x10E3/uL | ALANINE AMINOTRANSFERASE [4]: 48 u/L | ALBUMIN [4]: 4.23 G/DL | ALKALINE PHOSPHATASE [4]: 355.33 u/L | ASPARTATE AMINOTRANSFERASE [4]: 75.33 u/L | BLOOD UREA NITROGEN [4]: 14.67 mg/dL | CARBON DIOXIDE [4]: 33.67 mmol/L | CHLORIDE [4]: 99.67 MEQ/L | CHOLESTEROL [4]: 70.67 mg/dL | CREATINE PHOSPHOKINASE [4]: 260 u/L | CREATININE [4]: 0.26 mg/dL | GLUCOSE [4]: 135.67 mg/dL | LACTATE DEHYDROGENASE [4]: 215 u/L | LIPASE [4]: 10.67 u/L | PHOSPHORUS [4]: 11.83 mg/dL | POTASSIUM [4]: 6.61 MEQ/L | SODIUM [4]: 144.07 MEQ/L | TOTAL BILIRUBIN [4]: 0.27 mg/dL | TOTAL PROTEIN [4]: 6.03 G/DL | URIC ACID [4]: 1.37 mg/dL

Source: ChEMBL document CHEMBL3885881, “DrugMatrix”
